Where a name gives a salt, the structure may show the parent alone.
Molecular target: T1, FXR (Homo sapiens, UniProt Q96RI1)
T1 construct: expressed in transfected cells; host or cells: HEK293T
T1 sequence (Q96RI1 1-486): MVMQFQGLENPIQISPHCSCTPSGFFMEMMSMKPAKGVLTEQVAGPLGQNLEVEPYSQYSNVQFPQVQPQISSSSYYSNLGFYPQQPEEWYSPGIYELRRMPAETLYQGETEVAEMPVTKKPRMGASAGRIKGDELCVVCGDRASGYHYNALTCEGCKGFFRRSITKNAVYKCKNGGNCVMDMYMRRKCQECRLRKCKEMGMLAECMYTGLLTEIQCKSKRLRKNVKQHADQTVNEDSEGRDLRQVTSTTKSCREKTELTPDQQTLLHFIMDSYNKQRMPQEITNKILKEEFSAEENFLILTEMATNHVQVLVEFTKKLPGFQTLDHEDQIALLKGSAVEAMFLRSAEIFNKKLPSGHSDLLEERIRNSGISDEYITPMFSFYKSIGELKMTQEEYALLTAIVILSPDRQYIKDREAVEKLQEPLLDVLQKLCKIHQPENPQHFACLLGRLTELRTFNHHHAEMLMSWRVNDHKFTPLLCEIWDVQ
Experiment: FXR Transactivation Assay (pBIND-FXR / pGL4.35 luciferase reporter in HEK293T)
Type: cell-based
Details: HEK293T cells
Description: FXR Transactivation Assay
pGL4.35 [luc2P/9XGAL4 UAS/Hygro]
DMEM medium, high glucose
Fetal Bovine Serum (FBS, heat-inactivated)
Penicillin-Streptomycin (10000 U/ml, 100 ml)
DMEM, High Glucose, HEPES, no Phenol Red
Opti-MEM® I Reduced Serum Medium
Steady-Glo™ Luciferase Assay System
TransIT-293 Transfection Reagent
GW4064 as a positive control
(§1) • 1. Hek293T cells were plated at 1.1*10^6/ml into a 100 mm dish. • 2. Cells were transfected with 8.4 μg of pBind-FXR, 1.26 μg of the reporter vector pGL4.35 (Promega). Cells were incubated at 37° C. under 5% CO2 atmosphere. • 3. All of compounds were 3-fold serial diluted from 10 mM stock for 10 doses in DMSO. • 4. Transfer compound dilutions into 384 well assay plates using liquid workstation. • 5. Seed 25 ul HEK293T cells into 384 well assay plate (prepared step 4) at 0.6*10^5/ml. Cells were incubated at 37° C. under 5% CO2 atmosphere overnight. • 6. Add 25 ul steady-Glo™ Luciferase Assay Reagent into each well of 384-well assay plate. • 7. Record the luminescence value on Envision 2104 plate reader. • 8. Calculate EC50 by fitting % Activity values and log of compound concentrations to nonlinear regression (dose response−variable slope) with Graphpad 5.0. FXR Coactivator Assay Reagents: LanthaScreen™ TR-FRET Farnesoid X Receptor Coactivator Assay GW4064 as a positive control Process: • 1. All of compounds were 3-fold serial diluted from 10 mM stock for 10 doses in DMSO. • 2. Dilute each 100× agonist serial dilution to 2× using Complete Coregulator buffer G. • 3. Transfer 10 μl of each of the 2× agonist serial dilutions to 384 well assay plates. • 4. […] Incubate at room temperature protected from light. • 7. Read the plate at wavelengths of 520 nm and 495 nm on Envision 2104 plate reader. • 8. Calculate the TR-FRET ratio by dividing the emission signal at 520 nm by the emission signal at 495 nm. • 9. Calculate EC50 by fitting % Activity values and log of compound concentrations to nonlinear regression (dose response−variable slope) with Graphpad 5.0.

Question: With `CC1(c2cncc(C(=O)O)c2)CC1c1ccc(OCc2c(-c3c(Cl)cccc3Cl)noc2C2CC2)cc1Cl` (single isomer, unassigned) [IV-06-1, 5-[2-(2-Chloro-4-[[5-cyclopropyl-3-(2,6-dichlorophenyl)-1,2-oxazol-4-yl]methoxy]phenyl)-1-methylcyclopropyl] pyridine-3-carboxylic Acid] as the compound, how does the EC50 read?
Answer: 101 to 400 nM

Question: For `CC1(c2cncc(C(=O)O)c2)CC1c1ccc(OCc2c(-c3c(Cl)cccc3Cl)noc2C2CC2)cc1Cl` (single isomer, unassigned) [IV-06-2, 5-[2-(2-Chloro-4-[[5-cyclopropyl-3-(2,6-dichlorophenyl)-1,2-oxazol-4-yl]methoxy]phenyl)-1-methylcyclopropyl] pyridine-3-carboxylic Acid], which EC50 is on record?
Answer: 10 to 100 nM

Question: For `N#CC1(c2ccc(OCc3c(-c4c(Cl)cccc4Cl)noc3C3CC3)cc2Cl)CC1c1cccc(C(=O)O)c1` (single isomer, unassigned) [VII-03-2, 3-[2-(2-Chloro-4-[[5-cyclopropyl-3-(2,6-dichlorophenyl)-1,2-oxazol-4-yl]methoxy]phenyl)-2-cyanocyclopropyl] benzoic Acid], which EC50 is on record?
Answer: 10 to 100 nM

Question: `N#CC1(c2cccc(C(=O)O)c2)CC1c1ccc(OCc2c(-c3c(Cl)cccc3Cl)noc2C2CC2)cc1Cl` (stereo not shown) [Compound V-03] was tested. Which EC50 did it give?
Answer: 401 to 5000 nM

Question: How did the EC50 turn out when `N#CC1(c2cncc(C(=O)O)c2)CC1c1ccc(OCc2c(-c3c(Cl)cccc3Cl)noc2C2CC2)cc1Cl` (stereo not shown) [Compound V-04, 5-[2-(2-Chloro-4-[[5-cyclopropyl-3-(2,6-dichlorophenyl)-1,2-oxazol-4-yl]methoxy]phenyl)-1-cyanocyclopropyl] pyridine-3-carboxylic Acid] was run?
Answer: 401 to 5000 nM

Question: `CC1(c2cccc(C(=O)O)c2)CC1c1ccc(OCc2c(-c3c(Cl)cncc3Cl)noc2C2CC2)cc1Cl` (stereo not shown) [IV-04] was tested. Which EC50 did it give?
Answer: 101 to 400 nM

Question: Which EC50 does the source give for `CC1(c2ccnc(C(=O)O)c2)CC1c1ccc(OCc2c(-c3c(Cl)cccc3Cl)noc2C2CC2)cc1Cl` (stereo not shown) [IV-07] here?
Answer: 401 to 5000 nM

Question: `CC1(c2cncc(C(=O)O)c2)CC1c1ccc(OCc2c(-c3c(Cl)cncc3Cl)noc2C2CC2)cc1Cl` (stereo not shown) [IV-08] was tested. Which EC50 did it give?
Answer: 101 to 400 nM

Question: How did the EC50 turn out when `CC1(c2cncc(C(=O)O)c2)CC1c1ccc(OCc2c(-c3ccccc3OC(F)(F)F)noc2C2CC2)cc1Cl` (stereo not shown) [IV-09, 5-[2-[2-Chloro-4-([5-cyclopropyl-3-[2-(trifluoromethoxy)phenyl]-1,2-oxazol-4-yl]methoxy)phenyl]-1-methylcyclopropyl] pyridine-3-carboxylic Acid] was run?
Answer: 101 to 400 nM

Question: `CC1(c2cncc(C(=O)O)c2)CC1c1ccc(OCc2c(-c3ccccc3OC(F)F)noc2C2CC2)cc1Cl` (stereo not shown) [IV-10] was tested. Which EC50 did it give?
Answer: 101 to 400 nM

Question: With `CC(C)c1cnn(-c2c(Cl)cccc2Cl)c1COc1ccc(C2CC2(C)c2cncc(C(=O)O)c2)c(Cl)c1` (stereo not shown) [IV-11] as the compound, how does the EC50 read?
Answer: 10 to 100 nM

Question: How did the EC50 turn out when `CC1(c2cncc(C(=O)NCC(=O)O)c2)CC1c1ccc(OCc2c(-c3c(Cl)cccc3Cl)noc2C2CC2)cc1Cl` (stereo not shown) [IV-12, 2-([5-[2-(2-Chloro-4-[[5-cyclopropyl-3-(2,6-dichlorophenyl)-1,2-oxazol-4-yl]methoxy]phenyl)-1-methylcyclopropyl]pyridin-3-yl] formamido) Acetic Acid] was run?
Answer: 401 to 5000 nM

Question: Which EC50 does the source give for `CC(C)c1onc(-c2c(Cl)cccc2Cl)c1COc1ccc(C2CC2(C)c2ccc3c(c2)c(C(=O)O)nn3C(C)C)c(Cl)c1` (stereo not shown) [IV-14] here?
Answer: 401 to 5000 nM

Question: With `COc1cc(C(=O)O)cc2sc(C3(C)CC3c3ccc(OCc4c(-c5c(Cl)cccc5Cl)noc4C(C)C)cc3Cl)nc12` (stereo not shown) [IV-16] as the compound, how does the EC50 read?
Answer: 101 to 400 nM

Question: With `CC1(c2nc3ccc(C(=O)O)cc3s2)CC1c1ccc(OCc2c(-c3c(Cl)cccc3Cl)noc2C2CC2)cc1Cl` (stereo not shown) [IV-17] as the compound, how does the EC50 read?
Answer: 101 to 400 nM

Question: With `CC1(c2ccc(OCc3c(-c4c(Cl)cccc4Cl)noc3C3CC3)cc2Cl)CC1c1cccc(C(=O)O)c1` (stereo not shown) [VI-03] as the compound, how does the EC50 read?
Answer: 10 to 100 nM

Question: With `CC1(c2ccc(OCc3c(-c4c(Cl)cccc4Cl)noc3C3CC3)cc2Cl)CC1c1ccnc(C(=O)O)c1` (stereo not shown) [VI-06] as the compound, how does the EC50 read?
Answer: 10 to 100 nM

Question: With `CC1(c2ccc(OCc3c(-c4c(Cl)cccc4Cl)noc3C3CC3)cc2Cl)CC1c1cc(C(=O)O)ccn1` (stereo not shown) [VI-07] as the compound, how does the EC50 read?
Answer: 101 to 400 nM

Question: Which EC50 does the source give for `CC(C)c1onc(-c2c(Cl)cccc2Cl)c1COc1ccc(C2(C)CC2c2nc3c(F)cc(C(=O)O)cc3s2)c(Cl)c1` (stereo not shown) [VI-08] here?
Answer: 10 to 100 nM

Question: Which EC50 does the source give for `CC1(c2ccc(OCc3c(-c4c(Cl)cccc4Cl)noc3C3CC3)cc2Cl)CC1c1nc2c(F)cc(C(=O)O)cc2s1` (stereo not shown) [VI-09] here?
Answer: 10 to 100 nM

Question: How did the EC50 turn out when `CC(C)c1onc(-c2c(Cl)cccc2Cl)c1COc1ccc(C2(C)CC2c2nc3ccc(C(=O)O)cc3s2)c(Cl)c1` (stereo not shown) [VI-11] was run?
Answer: 10 to 100 nM

Question: Which EC50 does the source give for `CC(C)c1onc(-c2c(Cl)cccc2Cl)c1COc1ccc(C2(C)CC2c2ncc(C(=O)O)s2)c(Cl)c1` (stereo not shown) [VI-12, 2-(2-(2-Chloro-4-((3-(2,6-dichlorophenyl)-5-isopropylisoxazol-4-yl)methoxy)phenyl)-2-methylcyclopropyl) thiazole-5-carboxylic Acid] here?
Answer: 10 to 100 nM

Question: Which EC50 does the source give for `CC1(c2ccc(OCc3c(-c4c(Cl)cccc4Cl)noc3C3CC3)cc2Cl)CC1c1ncc(C(=O)O)s1` (stereo not shown) [VI-13] here?
Answer: 10 to 100 nM

Question: `N#CC1(c2ccc(OCc3c(-c4c(Cl)cccc4Cl)noc3C3CC3)cc2Cl)CC1c1cncc(C(=O)O)c1` (stereo not shown) [VII-05, 5-(2-(4-((3-(2,6-Dichlorophenyl)-5-cyclopropylisoxazol-4-yl)methoxy)-2-chlorophenyl)-2-cyanocyclopropyl) pyridine-3-carboxylic Acid] was tested. Which EC50 did it give?
Answer: 401 to 5000 nM

Question: How did the EC50 turn out when `COc1cc(C(=O)O)cc2sc(C3CC3(C#N)c3ccc(OCc4c(-c5c(Cl)cccc5Cl)noc4C4CC4)cc3Cl)nc12` (stereo not shown) [VII-06, 2-[2-(2-Chloro-4-[[5-cyclopropyl-3-(2,6-dichlorophenyl)-1,2-oxazol-4-yl]methoxy]phenyl)-2-cyanocyclopropyl]-4-methoxy-1,3-benzothiazole-6-carboxylic Acid] was run?
Answer: 101 to 400 nM

Question: `CC(C)n1nc(C(=O)O)cc1C1CC1(C#N)c1ccc(OCc2c(-c3c(Cl)cccc3Cl)noc2C2CC2)cc1Cl` (stereo not shown) [VII-07] was tested. Which EC50 did it give?
Answer: 401 to 5000 nM

Question: With `Cc1ccc(C(=O)O)cc1C1CC1(C#N)c1ccc(OCc2c(-c3c(Cl)cccc3Cl)noc2C2CC2)cc1Cl` (stereo not shown) [VII-08] as the compound, how does the EC50 read?
Answer: 10 to 100 nM

Question: `COc1ccc(C(=O)O)cc1C1CC1(C#N)c1ccc(OCc2c(-c3c(Cl)cccc3Cl)noc2C2CC2)cc1Cl` (stereo not shown) [VII-09] was tested. Which EC50 did it give?
Answer: 101 to 400 nM

Question: For `Cc1cc(C(=O)O)cc(C2CC2(C#N)c2ccc(OCc3c(-c4c(Cl)cccc4Cl)noc3C3CC3)cc2Cl)c1` (stereo not shown) [VII-10], which EC50 is on record?
Answer: 10 to 100 nM

Molecular target: T2, FXR-LBD (Homo sapiens, UniProt Q96RI1)
T2 construct: Add 5 μl of 4×FXR-LBD to 384 well assay plates; purchased
T2 sequence (Q96RI1 262-486 limits assumed): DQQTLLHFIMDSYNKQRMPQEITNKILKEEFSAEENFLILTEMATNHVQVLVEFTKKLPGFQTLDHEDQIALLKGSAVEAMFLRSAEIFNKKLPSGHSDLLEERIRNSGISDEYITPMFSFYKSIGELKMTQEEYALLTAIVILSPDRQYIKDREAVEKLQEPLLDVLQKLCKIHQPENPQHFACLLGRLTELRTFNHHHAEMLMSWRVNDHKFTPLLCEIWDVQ
Experiment: FXR Coactivator Assay (LanthaScreen TR-FRET)
Type: biochemical
Details: not given
Description: as §1

Question: How did the EC50 turn out when `CC(C)c1onc(-c2c(Cl)cccc2Cl)c1COc1ccc(C2CC2(CN)c2ccc(C(=O)O)cc2)c(Cl)c1` (stereo not shown) [Compound V2-01, 4-[1-(Aminomethyl)-2-(2-chloro-4-[[3-(2,6-dichlorophenyl)-5-(propan-2-yl)-1,2-oxazol-4-yl]methoxy]phenyl)cyclopropyl] benzoic Acid Hydrochloride] was run?
Answer: 401 to 5000 nM

Question: How did the EC50 turn out when `CC1(c2cncc(C(=O)NCCS(=O)(=O)O)c2)CC1c1ccc(OCc2c(-c3c(Cl)cccc3Cl)noc2C2CC2)cc1Cl` (stereo not shown) [IV-13] was run?
Answer: 10 to 100 nM

Question: `Cc1cc(C(=O)O)cc2sc(C3(C)CC3c3ccc(OCc4c(-c5c(Cl)cccc5Cl)noc4C4CC4)cc3Cl)nc12` (stereo not shown) [IV-18] was tested. Which EC50 did it give?
Answer: 401 to 5000 nM

Question: `CC1(c2ncc(C(=O)O)s2)CC1c1ccc(OCc2c(-c3c(Cl)cccc3Cl)noc2C2CC2)cc1Cl` (stereo not shown) [IV-19, 2-(2-(2-Chloro-4-((5-cyclopropyl-3-(2,6-dichlorophenyl)isoxazol-4-yl)methoxy)phenyl)-1-methylcyclopropyl) thiazole-5-carboxylic Acid] was tested. Which EC50 did it give?
Answer: 101 to 400 nM

Question: Which EC50 does the source give for `COc1cc(C(=O)O)cc2sc(C3CC3(C)c3ccc(OCc4c(-c5c(Cl)cccc5Cl)noc4C(C)C)cc3Cl)nc12` (stereo not shown) [VI-10] here?
Answer: 101 to 400 nM

Reference: patent US10899723B2, “Heterocyclic containing cyclopropyl FXR modulators” (Hepagene Therapeutics (HK) Limited, priority 2016, dated 2021)
